Source: patent publication US6358885B1, “Substituted phenylheterocyclic herbicides” (Mississippi State University, priority 1992, dated 2002)

How the values were obtained:
cheatgrass = assay: Test B preemergence/postemergence greenhouse plant response rating 0 to 10; assay type: in vivo, Bromus secalinus; conditions: 0 to 10 scale
Outline: (§1)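 Postemergence treatment of plants two to eighteen cm tall ran alongside preemergence treatment of planted seed, each using compound in a non-phytotoxic solvent.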

corn = assay: as above; assay type: in vivo, Zea mays; conditions: 0 to 10 scale
Outline: as §1

cotton [1] = assay: as above; assay type: in vivo, Gossypium hirsutum; conditions: 0 to 10 scale
Outline: as §1

lambsquarters [2] = assay: as above; assay type: in vivo, Chenopodium album; conditions: 0 to 10 scale
Outline: as §1

rice = assay: as above; assay type: in vivo, Oryza sativa; conditions: 0 to 10 scale
Outline: as §1

wheat = assay: as above; assay type: in vivo, Triticum aestivum; conditions: 0 to 10 scale
Outline: as §1

wild oat = assay: as above; assay type: in vivo, Avena fatua; conditions: 0 to 10 scale
Outline: as §1

bedstraw = assay: Test C preemergence/postemergence greenhouse plant response rating 0 to 100; assay type: in vivo, Galium aparine; conditions: POSTEMERGENCE; for Plant response rating, Bedstraw: 0 to 100 scale
Outline: (§2)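 Compounds in non-phytotoxic solvent went onto sandy loam before emergence (seeded one day earlier) or onto plants at the one-to-four leaf stage. Duck salad was treated via flood water (~2.5 cm, maintained) over silt loam.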

cotton [3] = assay: as above; assay type: in vivo, Gossypium hirsutum; conditions: POSTEMERGENCE; for Plant response rating, Cotton: 0 to 100 scale
Outline: as §2

crabgrass = assay: as above; assay type: in vivo, Digitaria sanguinalis; conditions: POSTEMERGENCE; for Plant response rating, Crabgrass: 0 to 100 scale
Outline: as §2

downy brome = assay: as above; assay type: in vivo, Bromus tectorum; conditions: POSTEMERGENCE; for Plant response rating Downy Brome: 0 to 100 scale
Outline: as §2

giant foxtail = assay: as above; assay type: in vivo, Setaria faberii; conditions: POSTEMERGENCE; for Plant response rating, Giant foxtail: 0 to 100 scale
Outline: as §2

lambsquarters [4] = assay: as above; assay type: in vivo, Chenopodium album; conditions: POSTEMERGENCE; for Plant response rating Lambsquarters: 0 to 100 scale
Outline: as §2

sorghum = assay: as above; assay type: in vivo, Sorghum bicolor; conditions: POSTEMERGENCE; for Plant response rating, Sorghum: 0 to 100 scale
Outline: as §2

sugar beet = assay: as above; assay type: in vivo, Beta vulgaris; conditions: POSTEMERGENCE; for Plant response rating, Sugar beet: 0 to 100 scale
Outline: as §2

velvetleaf = assay: as above; assay type: in vivo, Abutilon theophrasti; conditions: POSTEMERGENCE; for Plant response rating, Velvetleaf: 0 to 100 scale
Outline: as §2

duck salad = assay: Test C flood test plant response rating 0 to 100; assay type: in vivo, Heteranthera limosa; conditions: for Plant response rating Duck salad: flood test species listed under POSTEMERGENCE, 0 to 100 scale
Outline: as §2

barnyardgrass = assay: Test C flood test plant response rating 0 to 100; assay type: in vivo, Echinochloa crus-galli; conditions: for Plant response rating, Barnyardgrass: flood test species listed under POSTEMERGENCE, 0 to 100 scale
Outline: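 Compounds in non-phytotoxic solvent applied preemergence to sandy loam one day after planting, postemergence at the 1–4 leaf stage, or to ~2.5 cm floodwater over silt loam.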

[5] = POSTEMERGENCE section, flood test, Rate 4 g/ha
[6] = Rate 16 g/ha, under POSTEMERGENCE head (flood test species)

For `C#CC(C)N1C(=O)COc2cc(F)c(-c3nn4c(c3Cl)CCCC4)cc21` (stereo not drawn) [Compound 50], the “Plant response rating, Cheatgrass” value (cheatgrass; POSTEMERGENCE, Rate 10 g/ha) was 5, the “Plant response rating, Cheatgrass” value (cheatgrass; POSTEMERGENCE, Rate 50 g/ha) was 6 and the “Plant response rating, Cheatgrass” value (cheatgrass; PREEMERGENCE, Rate 10 g/ha) was 2. For the same compound, the “Plant response rating, Cheatgrass” value (cheatgrass; PREEMERGENCE, Rate 50 g/ha) was 3, the “Plant response rating, Corn” value (corn; POSTEMERGENCE, Rate 10 g/ha) was 3 and the “Plant response rating, Corn” value (corn; POSTEMERGENCE, Rate 50 g/ha) was 4. The “Plant response rating, Corn” value (corn; PREEMERGENCE, Rate 50 g/ha) was 0, the “Plant response rating, Cotton” value (cotton [1]; POSTEMERGENCE, Rate 10 g/ha) was 9 and the “Plant response rating, Cotton” value (cotton [1]; POSTEMERGENCE, Rate 50 g/ha) was 10. For the same compound, the “Plant response rating, Cotton” value (cotton [1]; PREEMERGENCE, Rate 10 g/ha) was 0, the “Plant response rating, Cotton” value (cotton [1]; PREEMERGENCE, Rate 50 g/ha) was 0 and the “Plant response rating, Lambsquarter” value (lambsquarters [2]; POSTEMERGENCE, Rate 10 g/ha) was 9. The “Plant response rating, Lambsquarter” value (lambsquarters [2]; POSTEMERGENCE, Rate 50 g/ha) was 10, the “Plant response rating, Lambsquarter” value (lambsquarters [2]; PREEMERGENCE, Rate 50 g/ha) was 10 and the “Plant response rating, Rice” value (rice; POSTEMERGENCE, Rate 10 g/ha) was 6. The “Plant response rating, Rice” value (rice; POSTEMERGENCE, Rate 50 g/ha) was 4, the “Plant response rating, Rice” value (rice; PREEMERGENCE, Rate 50 g/ha) was 2 and the “Plant response rating, Wheat” value (wheat; POSTEMERGENCE, Rate 10 g/ha) was 4. The “Plant response rating, Wheat” value (wheat; POSTEMERGENCE, Rate 50 g/ha) was 4, the “Plant response rating, Wheat” value (wheat; PREEMERGENCE, Rate 50 g/ha) was 0 and the “Plant response rating, Wild oat” value (wild oat; POSTEMERGENCE, Rate 10 g/ha) was 3. The “Plant response rating, Wild oat” value (wild oat; POSTEMERGENCE, Rate 50 g/ha) was 4, the “Plant response rating, Wild oat” value (wild oat; PREEMERGENCE, Rate 50 g/ha) was 3 and the “Plant response rating, Bedstraw” value (bedstraw; 62 g/ha) was 100. The “Plant response rating, Bedstraw” value (bedstraw; 250 g/ha) was 100, the “Plant response rating (0 to 100), Bedstraw” value (bedstraw; Rate 1 g/ha) was 10 and the “Plant response rating (0 to 100), Bedstraw” value (bedstraw; Rate 4 g/ha) was 20. The “Plant response rating (0 to 100), Bedstraw” value (bedstraw; Rate 16 g/ha) was 60, the “Plant response rating, Cotton” value (cotton [3]; 62 g/ha) was 100 and the “Plant response rating, Cotton” value (cotton [3]; 250 g/ha) was 100. The “Plant response rating (0 to 100), Cotton” value (cotton [3]; Rate 1 g/ha) was 70, the “Plant response rating (0 to 100), Cotton” value (cotton [3]; Rate 4 g/ha) was 100 and the “Plant response rating (0 to 100), Cotton” value (cotton [3]; Rate 16 g/ha) was 100. The “Plant response rating, Crabgrass” value (crabgrass; 62 g/ha) was 40, the “Plant response rating, Crabgrass” value (crabgrass; 250 g/ha) was 50 and the “Plant response rating (0 to 100), Crabgrass” value (crabgrass; Rate 1 g/ha) was 10. For the same compound, the “Plant response rating (0 to 100), Crabgrass” value (crabgrass; Rate 4 g/ha) was 20, the “Plant response rating (0 to 100), Crabgrass” value (crabgrass; Rate 16 g/ha) was 20 and the “Plant response rating Downy Brome” value (downy brome; 62 g/ha) was 50. The “Plant response rating Downy Brome” value (downy brome; 250 g/ha) was 60, the “Plant response rating (0 to 100), Downy Brome” value (downy brome; Rate 1 g/ha) was 0 and the “Plant response rating (0 to 100), Downy Brome” value (downy brome; Rate 4 g/ha) was 30. The “Plant response rating (0 to 100), Downy Brome” value (downy brome; Rate 16 g/ha) was 40, the “Plant response rating, Giant foxtail” value (giant foxtail; 62 g/ha) was 50 and the “Plant response rating, Giant foxtail” value (giant foxtail; 250 g/ha) was 50. The “Plant response rating (0 to 100), Giant foxtail” value (giant foxtail; Rate 1 g/ha) was 20, the “Plant response rating (0 to 100), Giant foxtail” value (giant foxtail; Rate 4 g/ha) was 30 and the “Plant response rating (0 to 100), Giant foxtail” value (giant foxtail; Rate 16 g/ha) was 50. For the same compound, the “Plant response rating Lambsquarters” value (lambsquarters [4]; 62 g/ha) was 100, the “Plant response rating Lambsquarters” value (lambsquarters [4]; 250 g/ha) was 100 and the “Plant response rating (0 to 100), Lambsquarters” value (lambsquarters [4]; Rate 4 g/ha) was 100. The “Plant response rating (0 to 100), Lambsquarters” value (lambsquarters [4]; Rate 16 g/ha) was 100, the “Plant response rating, Sorghum” value (sorghum; 62 g/ha) was 50 and the “Plant response rating, Sorghum” value (sorghum; 250 g/ha) was 50. The “Plant response rating (0 to 100), Sorghum” value (sorghum; Rate 1 g/ha) was 30, the “Plant response rating (0 to 100), Sorghum” value (sorghum; Rate 4 g/ha) was 50 and the “Plant response rating (0 to 100), Sorghum” value (sorghum; Rate 16 g/ha) was 50. The “Plant response rating, Sugar beet” value (sugar beet; 62 g/ha) was 100, the “Plant response rating, Sugar beet” value (sugar beet; 250 g/ha) was 100 and the “Plant response rating (0 to 100), Sugar beet” value (sugar beet; Rate 1 g/ha) was 20. The “Plant response rating (0 to 100), Sugar beet” value (sugar beet; Rate 4 g/ha) was 100, the “Plant response rating (0 to 100), Sugar beet” value (sugar beet; Rate 16 g/ha) was 100 and the “Plant response rating, Velvetleaf” value (velvetleaf; 62 g/ha) was 100. For the same compound, the “Plant response rating, Velvetleaf” value (velvetleaf; 250 g/ha) was 100, the “Plant response rating (0 to 100), Velvetleaf” value (velvetleaf; Rate 1 g/ha) was 70 and the “Plant response rating (0 to 100), Velvetleaf” value (velvetleaf; Rate 4 g/ha) was 90. The “Plant response rating (0 to 100), Velvetleaf” value (velvetleaf; Rate 16 g/ha) was 100, the “Plant response rating (0 to 100), Duck salad” value (duck salad; [5]) was 0 and the “Plant response rating (0 to 100), Duck salad” value (duck salad; [6]) was 0. The “Plant response rating Duck salad” value (duck salad; 62 g/ha) was 0, the “Plant response rating Duck salad” value (duck salad; 250 g/ha) was 90 and the “Plant response rating (0 to 100), Barnyardgrass” value (barnyardgrass; [5]) was 60. For the same compound, the “Plant response rating (0 to 100), Barnyardgrass” value (barnyardgrass; [6]) was 70, the “Plant response rating, Barnyardgrass” value (barnyardgrass; 62 g/ha) was 95 and the “Plant response rating, Barnyardgrass” value (barnyardgrass; 250 g/ha) was 100.
